# Laboratory results: ChEMBL document CHEMBL3817835, “Progress in the development of small molecules as new human A3adenosine receptor ligands based on the 3-thiophenylcoumarin core” (Medchemcomm, 2016)
# Legend:
# [1] = molecular target: Adenosine receptor A3 (Homo sapiens, UniProt P0DMS8); assay: Displacement of [3H]HEMADO from human A3 adenosine receptor expressed in CHO cells; format: cell-based
# [2] = molecular target: T1, Adenosine receptor A1 (Homo sapiens, UniProt P30542); assay: Displacement of [3H]CCPA from human A1 adenosine receptor expressed in CHO cells; format: cell-based
# T1 sequence (P30542 whole entry): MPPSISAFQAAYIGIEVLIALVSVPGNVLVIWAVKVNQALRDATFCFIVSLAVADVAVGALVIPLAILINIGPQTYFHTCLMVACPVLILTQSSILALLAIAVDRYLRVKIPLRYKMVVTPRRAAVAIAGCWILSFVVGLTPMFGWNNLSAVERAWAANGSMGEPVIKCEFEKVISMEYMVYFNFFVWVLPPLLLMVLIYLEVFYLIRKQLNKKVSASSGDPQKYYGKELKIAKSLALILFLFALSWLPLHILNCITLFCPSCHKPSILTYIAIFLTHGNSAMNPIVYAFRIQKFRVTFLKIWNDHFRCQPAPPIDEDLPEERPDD
# [3] = molecular target: Adenosine receptor A2a (Homo sapiens, UniProt P29274); assay: Displacement of [3H]NECA from human A2A adenosine receptor expressed in CHO cells; format: cell-based
# [4] = molecular target: T2, Adenosine receptor A2b (Homo sapiens, UniProt P29275); assay: Antagonist activity at human A2B adenosine receptor assessed as inhibition of NECA-stimulated adenylyl cyclase activity; format: functional
# T2 sequence (P29275 whole entry): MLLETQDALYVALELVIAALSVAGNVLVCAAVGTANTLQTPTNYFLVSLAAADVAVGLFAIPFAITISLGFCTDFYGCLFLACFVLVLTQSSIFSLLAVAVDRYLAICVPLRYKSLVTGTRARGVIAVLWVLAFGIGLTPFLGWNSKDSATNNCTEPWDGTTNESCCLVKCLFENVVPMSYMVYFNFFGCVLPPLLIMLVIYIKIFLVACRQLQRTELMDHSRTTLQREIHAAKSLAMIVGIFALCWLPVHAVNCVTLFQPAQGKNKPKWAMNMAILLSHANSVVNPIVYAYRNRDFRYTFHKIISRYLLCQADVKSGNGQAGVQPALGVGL
# [5] = species: Homo sapiens; assay: Selectivity index, ratio of Ki for human A2 adenosine receptor to Ki for human A3 adenosine receptor
# [6] = molecular target: Adenosine receptors; A1 & A3 (Homo sapiens) (UniProt P30542+P0DMS8); assay: Selectivity index, ratio of Ki for human A1 adenosine receptor to Ki for human A3 adenosine receptor
# Sequence of Adenosine receptor A2a (P29274 whole entry): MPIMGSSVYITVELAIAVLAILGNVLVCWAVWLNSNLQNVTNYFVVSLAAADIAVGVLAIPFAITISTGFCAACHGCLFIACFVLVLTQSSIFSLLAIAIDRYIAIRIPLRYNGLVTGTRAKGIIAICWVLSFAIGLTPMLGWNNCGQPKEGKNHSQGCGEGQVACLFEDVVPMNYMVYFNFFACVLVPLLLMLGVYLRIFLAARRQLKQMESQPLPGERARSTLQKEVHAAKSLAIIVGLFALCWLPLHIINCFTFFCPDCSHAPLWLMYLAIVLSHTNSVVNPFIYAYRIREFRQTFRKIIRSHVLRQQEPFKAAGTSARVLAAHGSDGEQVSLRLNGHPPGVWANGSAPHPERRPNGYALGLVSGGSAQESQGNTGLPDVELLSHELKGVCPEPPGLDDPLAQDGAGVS
# Sequence of Adenosine receptor A3 (P0DMS8 whole entry, looked up): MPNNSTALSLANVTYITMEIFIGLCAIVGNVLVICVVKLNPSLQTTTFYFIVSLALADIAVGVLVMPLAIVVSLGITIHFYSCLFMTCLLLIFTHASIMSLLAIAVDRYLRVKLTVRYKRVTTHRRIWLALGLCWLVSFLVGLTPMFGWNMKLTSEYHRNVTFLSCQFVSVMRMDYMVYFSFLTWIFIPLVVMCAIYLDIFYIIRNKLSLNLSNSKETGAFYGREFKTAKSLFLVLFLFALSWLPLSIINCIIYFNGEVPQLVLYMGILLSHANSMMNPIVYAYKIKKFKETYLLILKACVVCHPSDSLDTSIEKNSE
SMILES,Ki [1] [µM],Ki [2] [µM],Ki [3] [µM],Ki [4] [µM],Ratio Ki [5],Ratio Ki [6]
O=c1oc2c(O)cccc2cc1-c1ccsc1,2.87,5.92,9.87,> 30,,
O=c1oc2c(O)c(O)ccc2cc1-c1ccsc1,5.31,3.36,14.7,> 30,,
CC(=O)Oc1cccc2cc(-c3cc(Br)cs3)c(=O)oc12,4.08,> 100,> 100,> 30,,
O=c1oc2c(O)cccc2cc1-c1cc(Br)cs1,0.746,> 100,> 100,> 30,130,130
CC(=O)Oc1cccc2cc(-c3cccs3)c(=O)oc12,2.58,> 100,18.8,> 30,,
CC(=O)Oc1ccc2cc(-c3cc(Br)cs3)c(=O)oc2c1OC(C)=O,> 100,> 100,> 100,> 30,,

# Continued by falling Ki [1], values first:
Ki [1] [µM],Ki [2] [µM],Ki [3] [µM],Ki [4] [µM],Ratio Ki [5],Ratio Ki [6],SMILES
22.5,> 100,> 100,> 30,,,CC(=O)Oc1ccc2cc(-c3cccs3)c(=O)oc2c1OC(C)=O
4.83,3.23,9.98,> 30,,,O=c1oc2c(O)c(O)ccc2cc1-c1cccs1
3.6,> 100,20.6,> 30,,,CC(=O)Oc1ccc2cc(-c3ccsc3)c(=O)oc2c1OC(C)=O
3.4,16.3,12.2,> 30,,,O=c1oc2c(O)c(O)ccc2cc1-c1cc(Br)cs1
1.82,> 100,14.7,> 30,,,CC(=O)Oc1cccc2cc(-c3ccsc3)c(=O)oc12
1.43,3.36,7.48,> 30,,,O=c1oc2c(O)cccc2cc1-c1cccs1
